{"source": "patent US8957108B2", "about": "“Use of 5,6-dimethylxanthenone-4-acetic acid as an antiviral agent” (University of Maryland, Baltimore, priority 2006, dated 2015)", "test_system": "C57BL/6J macrophages", "key": {"[1]": {"conditions": "DMXAA 3 h vs unstimulated wild-type cells"}, "[2]": {"conditions": "ratio of fold change, wild-type vs IFN-β-deficient cells"}}, "data": [{"smiles": "Cc1ccc2c(=O)c3cccc(CC(=O)O)c3oc2c1C", "note": "[DMXAA, 5,6-dimethylxanthenone-4-acetic acid]", "values": [{"measurement": "ZBP1 Fold Change: BL/6", "setting": "[1]", "result": 15.4, "unit": "fold"}, {"measurement": "ZNF313 Fold Change: BL/6", "setting": "[1]", "result": 3.2, "unit": "fold"}, {"measurement": "number of modulated genes that are IFN-β-dependent", "setting": "of the 136 genes, 3-fold difference wild-type vs IFN-β−/−", "result": 77, "unit": "genes"}, {"measurement": "number of genes with ≧3-fold change in expression", "setting": "of ˜14,000 genes analyzed, 3 h, vs medium-treated cells", "result": 136, "unit": "genes"}, {"measurement": "2310043N10RIK WT/KO", "setting": "[2]", "result": 3.2}, {"measurement": "5830484A20RIK WT/KO", "setting": "[2]", "result": 1.4}, {"measurement": "ABCB1 WT/KO", "setting": "[2]", "result": 1.1}, {"measurement": "ABL1 WT/KO", "setting": "[2]", "result": 5.6}, {"measurement": "ABLIM1 WT/KO", "setting": "[2]", "result": 7.1}, {"measurement": "ACVR1B WT/KO", "setting": "[2]", "result": 1.9}, {"measurement": "ADRB2 WT/KO", "setting": "[2]", "result": 1.9}, {"measurement": "AFTIPHILIN WT/KO", "setting": "[2]", "result": 3.0}, {"measurement": "AKAP12 WT/KO", "setting": "[2]", "result": 2.2}, {"measurement": "AMPD3 WT/KO", "setting": "[2]", "result": 1.5}, {"measurement": "AP2A2 WT/KO", "setting": "[2]", "result": 1.1}, {"measurement": "APBB1IP WT/KO", "setting": "[2]", "result": 2.2}, {"measurement": "APOBEC3F WT/KO", "setting": "[2]", "result": 2.5}, {"measurement": "ARHGEF3 WT/KO", "setting": "[2]", "result": 2.1}, {"measurement": "ARID3A WT/KO", "setting": "[2]", "result": 1.6}, {"measurement": "ARL4C WT/KO", "setting": "[2]", "result": 1.0}, {"measurement": "ASF1A WT/KO", "setting": "[2]", "result": 1.8}, {"measurement": "ATRX WT/KO", "setting": "[2]", "result": 1.6}, {"measurement": "B3GAT3 WT/KO", "setting": "[2]", "result": 5.5}, {"measurement": "BACE1 WT/KO", "setting": "[2]", "result": 3.2}, {"measurement": "BAMBI WT/KO", "setting": "[2]", "result": 2.7}, {"measurement": "BCL2L1 WT/KO", "setting": "[2]", "result": 6.0}, {"measurement": "BCL2 WT/KO", "setting": "[2]", "result": 5.4}, {"measurement": "BHLHB2 WT/KO", "setting": "[2]", "result": 3.0}, {"measurement": "BID WT/KO", "setting": "[2]", "result": 1.1}, {"measurement": "C8ORF4 WT/KO", "setting": "[2]", "result": 8.7}, {"measurement": "C9ORF26 WT/KO", "setting": "[2]", "result": 2.1}, {"measurement": "CCL2 WT/KO", "setting": "[2]", "result": 21.7}, {"measurement": "CCL3 WT/KO", "setting": "[2]", "result": 4.1}, {"measurement": "CCL4 WT/KO", "setting": "[2]", "result": 1.9}, {"measurement": "CCL5 WT/KO", "setting": "[2]", "result": 1.4}, {"measurement": "CCL7 WT/KO", "setting": "[2]", "result": 3.2}, {"measurement": "CCL13 WT/KO", "setting": "[2]", "result": 2.9}, {"measurement": "CCND2 WT/KO", "setting": "[2]", "result": 3.2}, {"measurement": "CCNE1 WT/KO", "setting": "[2]", "result": 1.1}, {"measurement": "CCNF WT/KO", "setting": "[2]", "result": 4.4}, {"measurement": "CCRN4L WT/KO", "setting": "[2]", "result": 3.6}, {"measurement": "CD37 WT/KO", "setting": "[2]", "result": 4.7}, {"measurement": "CD40 WT/KO", "setting": "[2]", "result": 7.9}, {"measurement": "CD86 WT/KO", "setting": "[2]", "result": 1.8}, {"measurement": "CD274 WT/KO", "setting": "[2]", "result": 5.9}, {"measurement": "CDC6 WT/KO", "setting": "[2]", "result": 1.2}, {"measurement": "CDC7 WT/KO", "setting": "[2]", "result": 2.2}, {"measurement": "CDC37L1 WT/KO", "setting": "[2]", "result": 1.7}, {"measurement": "CDKN1A WT/KO", "setting": "[2]", "result": 2.7}, {"measurement": "CEBPB WT/KO", "setting": "[2]", "result": 1.7}, {"measurement": "CITED2 WT/KO", "setting": "[2]", "result": 4.6}, {"measurement": "CLCA1 WT/KO", "setting": "[2]", "result": 2.5}, {"measurement": "CNR2 WT/KO", "setting": "[2]", "result": 4.0}, {"measurement": "CREBBP WT/KO", "setting": "[2]", "result": 0.7}, {"measurement": "CXCL10 WT/KO", "setting": "[2]", "result": 3.3}, {"measurement": "DAXX WT/KO", "setting": "[2]", "result": 4.9}, {"measurement": "DSCR1 WT/KO", "setting": "[2]", "result": 1.3}, {"measurement": "FGD6 WT/KO", "setting": "[2]", "result": 1.5}, {"measurement": "FGL2 WT/KO", "setting": "[2]", "result": 2.9}, {"measurement": "GBP2 WT/KO", "setting": "[2]", "result": 3.1}, {"measurement": "GBP4 WT/KO", "setting": "[2]", "result": 1.6}, {"measurement": "GBP6 WT/KO", "setting": "[2]", "result": 1.6}, {"measurement": "GYPC WT/KO", "setting": "[2]", "result": 1.3}, {"measurement": "IFI16 WT/KO", "setting": "[2]", "result": 1.6}, {"measurement": "IFI35 WT/KO", "setting": "[2]", "result": 3.3}, {"measurement": "IFI203 WT/KO", "setting": "[2]", "result": 6.4}, {"measurement": "IFI205 WT/KO", "setting": "[2]", "result": 3.5}, {"measurement": "IFIH1 WT/KO", "setting": "[2]", "result": 1.4}, {"measurement": "IFIT1 WT/KO", "setting": "[2]", "result": 1.5}, {"measurement": "IFIT2 WT/KO", "setting": "[2]", "result": 1.9}, {"measurement": "IFIT3 WT/KO", "setting": "[2]", "result": 3.1}, {"measurement": "IFNA5 WT/KO", "setting": "[2]", "result": 12.9}, {"measurement": "IFNA6 WT/KO", "setting": "[2]", "result": 8.6}, {"measurement": "IFNB1 WT/KO", "setting": "[2]", "result": 178.6}, {"measurement": "IFNG WT/KO", "setting": "[2]", "result": 0.8}, {"measurement": "IGTP WT/KO", "setting": "[2]", "result": 11.2}, {"measurement": "IIGP1 WT/KO", "setting": "[2]", "result": 18.7}, {"measurement": "IL6 WT/KO", "setting": "[2]", "result": 41.8}, {"measurement": "IL12B WT/KO", "setting": "[2]", "result": 3.2}, {"measurement": "IL15RA WT/KO", "setting": "[2]", "result": 4.5}, {"measurement": "IL15 WT/KO", "setting": "[2]", "result": 4.3}, {"measurement": "IRF1 WT/KO", "setting": "[2]", "result": 5.9}, {"measurement": "IRF2 WT/KO", "setting": "[2]", "result": 3.5}, {"measurement": "IRGM WT/KO", "setting": "[2]", "result": 2.9}, {"measurement": "ISG20 WT/KO", "setting": "[2]", "result": 6.1}, {"measurement": "KATNA1 WT/KO", "setting": "[2]", "result": 2.1}, {"measurement": "LGP2 WT/KO", "setting": "[2]", "result": 2.4}, {"measurement": "LHX2 WT/KO", "setting": "[2]", "result": 11.9}, {"measurement": "LOC129607 WT/KO", "setting": "[2]", "result": 7.6}, {"measurement": "MAFK WT/KO", "setting": "[2]", "result": 3.0}, {"measurement": "MARCH5 WT/KO", "setting": "[2]", "result": 2.5}, {"measurement": "MOV10 WT/KO", "setting": "[2]", "result": 3.4}, {"measurement": "MX1 WT/KO", "setting": "[2]", "result": 20.7}, {"measurement": "MX2 WT/KO", "setting": "[2]", "result": 74.3}, {"measurement": "NMI WT/KO", "setting": "[2]", "result": 2.9}, {"measurement": "NP WT/KO", "setting": "[2]", "result": 2.5}, {"measurement": "NT5C3 WT/KO", "setting": "[2]", "result": 3.6}, {"measurement": "OAS1B WT/KO", "setting": "[2]", "result": 6.2}, {"measurement": "OASL WT/KO", "setting": "[2]", "result": 1.8}, {"measurement": "P4HA1 WT/KO", "setting": "[2]", "result": 1.2}, {"measurement": "P8 WT/KO", "setting": "[2]", "result": 2.9}, {"measurement": "PARP9 WT/KO", "setting": "[2]", "result": 2.8}, {"measurement": "PELI1 WT/KO", "setting": "[2]", "result": 1.4}, {"measurement": "PGF WT/KO", "setting": "[2]", "result": 1.3}, {"measurement": "PLAU WT/KO", "setting": "[2]", "result": 1.7}, {"measurement": "PPP1R15A WT/KO", "setting": "[2]", "result": 3.4}, {"measurement": "PTX3 WT/KO", "setting": "[2]", "result": 4.0}, {"measurement": "PVRL2 WT/KO", "setting": "[2]", "result": 2.1}, {"measurement": "PVRL4 WT/KO", "setting": "[2]", "result": 2.1}, {"measurement": "REL WT/KO", "setting": "[2]", "result": 2.8}, {"measurement": "RGC32 WT/KO", "setting": "[2]", "result": 2.9}, {"measurement": "RIPK2 WT/KO", "setting": "[2]", "result": 2.5}, {"measurement": "RSAD2 WT/KO", "setting": "[2]", "result": 2.0}, {"measurement": "SAP30 WT/KO", "setting": "[2]", "result": 2.4}, {"measurement": "SAV1 WT/KO", "setting": "[2]", "result": 1.2}, {"measurement": "SDC4 WT/KO", "setting": "[2]", "result": 1.2}, {"measurement": "SECTM1 WT/KO", "setting": "[2]", "result": 15.0}, {"measurement": "SLC7A2 WT/KO", "setting": "[2]", "result": 2.0}, {"measurement": "SOAT1 WT/KO", "setting": "[2]", "result": 1.8}, {"measurement": "SOCS1 WT/KO", "setting": "[2]", "result": 16.7}, {"measurement": "STAT2 WT/KO", "setting": "[2]", "result": 2.3}, {"measurement": "TGTP WT/KO", "setting": "[2]", "result": 38.6}, {"measurement": "TLK2 WT/KO", "setting": "[2]", "result": 3.0}, {"measurement": "TLR3 WT/KO", "setting": "[2]", "result": 6.8}, {"measurement": "TMOD3 WT/KO", "setting": "[2]", "result": 1.5}, {"measurement": "TNF WT/KO", "setting": "[2]", "result": 5.0}, {"measurement": "TNFRSF11B WT/KO", "setting": "[2]", "result": 0.9}, {"measurement": "TNFSF9 WT/KO", "setting": "[2]", "result": 3.0}, {"measurement": "TOR1AIP1 WT/KO", "setting": "[2]", "result": 2.4}, {"measurement": "TPST1 WT/KO", "setting": "[2]", "result": 1.1}, {"measurement": "TREX1 WT/KO", "setting": "[2]", "result": 2.0}, {"measurement": "TRIM21 WT/KO", "setting": "[2]", "result": 3.2}, {"measurement": "TRIM25 WT/KO", "setting": "[2]", "result": 1.8}, {"measurement": "TRIM34 WT/KO", "setting": "[2]", "result": 1.7}, {"measurement": "USP18 WT/KO", "setting": "[2]", "result": 11.4}, {"measurement": "VCAM1 WT/KO", "setting": "[2]", "result": 2.1}, {"measurement": "ZBP1 WT/KO", "setting": "[2]", "result": 3.7}, {"measurement": "ZNF313 WT/KO", "setting": "[2]", "result": 2.1}]}]}
